Literature values in patent US9422238B2, “ICMT inhibitors” (National University of Singapore, priority 2012, dated 2016).

Test system: several malignant cell lines
Details: irrespective of Ras status; cited from earlier work

Compound: COc1cccc(NCCC2(c3ccccc3)CC(C)(C)OC(C)(C)C2)c1 [3-methoxy-N-[2-(2,2,6,6-tetramethyl-4-phenyltetrahydropyran-4-yl)ethyl]aniline]
- GI50: ≥ 300 nM
